Source: PubChem BioAssay (NCI)
Several values for one entry are separate records, joined by “and”; a condition that tells them apart may be missing. Equal values may be shown once.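 A five-concentration, 48-hour dose response in 96-well plates underlies each endpoint, interpolated linearly between surrounding concentrations. The concentration for full growth arrest is given as TGI.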

How the values were obtained:
Test in all cases: DTP human tumour cell line panel, 48 h
ACHN renal = test system: ACHN renal
HOP-92 NSCLC = test system: HOP-92 NSCLC
HT29 colon = test system: HT29 colon
LOX IMVI melanoma = test system: LOX IMVI melanoma
PC-3 prostate = test system: PC-3 prostate
SF-295 CNS = test system: SF-295 CNS
SK-MEL-2 melanoma = test system: SK-MEL-2 melanoma
SW-620 colon = test system: SW-620 colon
MDA-MB-435 = test system: MDA-MB-435
NCI/ADR-RES ovarian = test system: NCI/ADR-RES ovarian

Compound	TGI (ACHN renal)	TGI (HOP-92 NSCLC)	TGI (HT29 colon)	TGI (LOX IMVI melanoma)	TGI (PC-3 prostate)	TGI (SF-295 CNS)	TGI (SK-MEL-2 melanoma)	TGI (SW-620 colon)	TGI (MDA-MB-435)	TGI (NCI/ADR-RES ovarian)
COc1cc(C2C3=C(COC3=O)Oc3cc4c(cc32)OCO4)cc(OC)c1O (stereo not given)	22.9 µM	5.55 µM	0.984 µM	19 µM	4.67 µM	15.4 µM	2.51 µM	> 100 µM		
O=C1CC(=O)n2cnc3cccc(c32)N1		> 100 µM	> 100 µM		> 100 µM	> 100 µM	> 100 µM	> 100 µM	> 100 µM	> 100 µM
CCCSc1ccc2[nH]c(N3C(=O)/C(=C/c4ccccc4)N=C3c3ccccc3)cc2c1	> 50 µM	> 50 µM	> 50 µM	> 50 µM	> 50 µM		18 µM	> 50 µM	21.3 µM	> 50 µM
CCOC(=O)Nn1c(CC#N)nnc1Cc1ccccc1	> 100 µM	> 100 µM	> 100 µM		> 100 µM	> 100 µM	> 100 µM	> 100 µM	> 100 µM	> 100 µM
Cn1c(=O)oc2nc(-c3ccccc3)cc(C(F)(F)F)c21	> 100 µM	81 µM	> 100 µM		> 100 µM	> 100 µM	> 100 µM	> 100 µM	> 100 µM	> 100 µM
COC[C@@H](N=Cc1ccc([N+](=O)[O-])cc1)C(C)C	> 100 µM		> 100 µM	> 100 µM	> 100 µM	> 100 µM	> 100 µM	> 100 µM	> 100 µM	> 100 µM
CC(C)(C)CC(C)(C)c1cc(O)c(O)c(CN2CCCCC2)c1	25.6 µM	35 µM	19.7 µM	24.3 µM	26.9 µM	32.3 µM		28 µM	37.1 µM	19 µM
Cc1cc(OC(=O)NCn2cc(-c3ccccc3)nn2)ccc1Cl	> 100 µM	> 100 µM	> 100 µM	> 100 µM	> 100 µM	> 100 µM	> 100 µM	> 100 µM		> 100 µM
C=CCP(=O)(CC=C)C(Cl)Cl	> 100 µM	> 100 µM	> 100 µM	> 100 µM	> 100 µM	> 100 µM	> 100 µM	> 100 µM		> 100 µM
COc1ccc(OC)c(SC(CC(=O)c2ccccc2)c2ccccc2)c1 (stereo not given)	39 µM	> 100 µM	35.8 µM		33.9 µM	31.6 µM	36.1 µM	12.2 µM	26.7 µM	32.4 µM
NCc1cccc(O)c1O	> 100 µM	> 100 µM	> 100 µM	> 100 µM		> 100 µM	> 100 µM	> 100 µM		
Cn1c(-c2ccc(/C=N/NC(=S)N/N=C/c3ccc(-c4c[n+]5ccsc5n4C)cc3)cc2)c[n+]2ccsc12	> 100 µM		> 100 µM		> 100 µM	> 100 µM		> 100 µM	> 100 µM	> 100 µM
NCC(O)CSCc1ccc(Cl)cc1 (stereo not given)	> 100 µM	> 100 µM	> 100 µM	> 100 µM	> 100 µM	> 100 µM		> 100 µM	> 100 µM	> 100 µM
CN(C)CCn1c(CO)nc2c1c(=O)n(C)c(=O)n2C	> 100 µM		> 100 µM	> 100 µM	> 100 µM	> 100 µM	> 100 µM	> 100 µM	> 100 µM	> 100 µM
CCN(CC)C(=S)SS(=O)(=O)c1cccc(N)c1	> 100 µM	> 100 µM	> 100 µM	> 100 µM		> 100 µM	> 100 µM	> 100 µM	> 100 µM	> 100 µM
O=C(Nn1c(-c2ccccc2)nc2ccccc2c1=O)c1ccccc1O	> 100 µM	> 100 µM	> 100 µM	> 100 µM	> 100 µM	> 100 µM		> 100 µM	> 100 µM	> 100 µM
COc1cc2cc(C(=O)N3CC(COS(C)(=O)=O)c4ccc(O)cc43)[nH]c2c(OC)c1OC (stereo not given)	< 0.0001 µM	0.638 µM				< 0.0001 µM	< 0.0001 µM	0.111 µM and 0.0118 µM	0.000212 µM	0.524 µM
CC(C)(C)n1c(=O)[nH]c(=O)n1C(C)(C)C	> 100 µM	> 100 µM	> 100 µM	> 100 µM	> 100 µM	> 100 µM	> 100 µM	> 100 µM		> 100 µM
Cc1ccccc1-c1nc2c(C(=O)NCCN(C)C)cccc2[nH]1		85.1 µM	> 100 µM	> 100 µM		> 100 µM	> 100 µM	> 100 µM		> 100 µM
O=C(N/N=C/C=C/c1ccccc1)c1ccccc1Nc1ccccc1C(=O)N/N=C/C=C/c1ccccc1	> 100 µM	> 100 µM	> 100 µM		> 100 µM	> 100 µM	> 100 µM	> 100 µM	> 100 µM	> 100 µM
Nc1nc(Cl)cc(NC23CC4CC(CC(C4)C2)C3)n1	> 100 µM	> 100 µM			> 100 µM	> 100 µM	71.4 µM	> 100 µM	> 100 µM	> 100 µM
CC(C)/C(Cl)=N\OC(NC(=O)P(=O)(c1ccccc1)c1ccccc1)(C(F)(F)F)C(F)(F)F	16.3 µM	12.8 µM	59.1 µM	29.6 µM	34.4 µM	79.5 µM		53.9 µM	30.6 µM	42.2 µM
CC(C)=CCNc1nc(Cl)nc2nc[nH]c12	> 100 µM	87.5 µM	> 100 µM	> 100 µM	> 100 µM	> 100 µM		> 100 µM	> 100 µM	> 100 µM
C/C(=N\NC(=S)N(C)C)c1cccnn1	0.474 µM		> 100 µM	> 51.2 µM	> 100 µM	> 100 µM	> 100 µM	> 100 µM	> 100 µM	36.6 µM
